{"source": "paper PMC3058872", "about": "(Archives of biochemistry and biophysics, 2010)", "key": {"[1]": {"molecular_target": "T1, EI^Ntr (Enzyme I^Ntr) (Escherichia coli, UniProt P37177, H356A)", "T1 sequence (P37177 170-748 H356A limits assumed)": "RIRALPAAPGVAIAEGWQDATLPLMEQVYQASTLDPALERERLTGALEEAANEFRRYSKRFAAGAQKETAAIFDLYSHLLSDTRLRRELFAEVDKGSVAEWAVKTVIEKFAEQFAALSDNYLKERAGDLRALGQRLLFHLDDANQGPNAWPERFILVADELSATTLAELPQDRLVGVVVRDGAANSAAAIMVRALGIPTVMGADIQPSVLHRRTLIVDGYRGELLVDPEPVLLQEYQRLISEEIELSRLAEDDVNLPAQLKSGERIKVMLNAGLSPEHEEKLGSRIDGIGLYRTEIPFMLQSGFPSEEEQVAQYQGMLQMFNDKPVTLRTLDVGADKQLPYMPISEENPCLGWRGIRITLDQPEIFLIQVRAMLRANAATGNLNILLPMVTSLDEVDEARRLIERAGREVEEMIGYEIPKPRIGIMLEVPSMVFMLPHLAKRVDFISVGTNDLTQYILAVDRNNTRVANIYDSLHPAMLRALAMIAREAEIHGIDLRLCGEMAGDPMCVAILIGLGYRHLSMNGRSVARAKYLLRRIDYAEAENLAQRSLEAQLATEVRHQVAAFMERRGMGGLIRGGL", "assay": "intrinsic Trp fluorescence titration", "assay_type": "binding"}, "[2]": {"molecular_target": "T1, EI^Ntr (Enzyme I^Ntr)", "assay": "thermal unfolding followed by Trp fluorescence", "assay_type": "binding", "details": "hydrogenated protein, 150 μM PEP, 20 mM Tris-Cl pH 8, 2 mM MgCl2, scan 30 °C/h"}}, "data": [{"smiles": "C=C(OP(=O)(O)O)C(=O)O", "note": "[PEP]", "values": [{"measurement": "Kd", "setting": "[1]", "result": 21, "unit": "µM"}, {"measurement": "stabilization due to PEP binding (dTm)", "setting": "[2]", "result": 4.04, "unit": "°C"}]}]}
